In PubChem BioAssay (NCI):
Where “and” joins values, the source holds several entries; their conditions need not be identical. Equal entries are not always repeated.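 Test compounds were applied to cells in 96-well plates for 48 hours at 5 doses. The concentration for 50% growth inhibition is given as GI50. TGI: total growth inhibition.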

Columns and labels:
Assay in all cases: DTP human tumour cell line panel, 48 h
A498 renal = system: A498 renal
ACHN renal = system: ACHN renal
BT-549 breast = system: BT-549 breast
CAKI-1 renal = system: CAKI-1 renal
M14 melanoma = system: M14 melanoma
NCI/ADR-RES ovarian = system: NCI/ADR-RES ovarian
SF-268 CNS = system: SF-268 CNS
SR leukemia = system: SR leukemia
TK-10 renal = system: TK-10 renal
U251 CNS = system: U251 CNS

## O=C(Nc1ccc(Oc2ccc3nc(NC(=O)c4ccccc4)[nH]c3c2)cc1)Nc1cc(C(F)(F)F)ccc1F
A498 renal
  GI50: 2.57 µM
  TGI: > 25 µM
ACHN renal
  GI50: 1.84 µM
  TGI: > 25 µM
BT-549 breast
  GI50: 1.19 µM
  TGI: 8.57 µM
CAKI-1 renal
  GI50: 1.09 µM
  TGI: 7.8 µM
M14 melanoma
  GI50: 0.997 µM
  TGI: 9.29 µM
NCI/ADR-RES ovarian
  GI50: 0.771 µM
  TGI: 3.38 µM
SF-268 CNS
  GI50: 2.03 µM
  TGI: 24.4 µM
SR leukemia
  GI50: 3.09 µM
  TGI: 20.2 µM
TK-10 renal
  GI50: 2.61 µM
  TGI: 22 µM
U251 CNS
  GI50: 1.28 µM
  TGI: 21.6 µM

## CNC(=O)c1ccc2cc(C3(O)CCn4cncc43)ccc2c1 (stereo not drawn)
A498 renal
  GI50: > 100 µM
  TGI: > 100 µM
ACHN renal
  GI50: > 100 µM
  TGI: > 100 µM
BT-549 breast
  GI50: > 100 µM
  TGI: > 100 µM
CAKI-1 renal
  GI50: > 100 µM
  TGI: > 100 µM
M14 melanoma
  GI50: > 100 µM
  TGI: > 100 µM
NCI/ADR-RES ovarian
  GI50: > 100 µM
  TGI: > 100 µM
SF-268 CNS
  GI50: > 100 µM
  TGI: > 100 µM
SR leukemia
  GI50: > 100 µM
  TGI: > 100 µM
TK-10 renal
  GI50: > 100 µM
  TGI: > 100 µM
U251 CNS
  GI50: > 100 µM
  TGI: > 100 µM

## O=C(CSC(c1ccccc1)c1ccccc1)N/N=C/c1cccc(Cl)c1
A498 renal
  GI50: 14.9 µM
  TGI: 29 µM
ACHN renal
  GI50: 13.7 µM
  TGI: 26.6 µM
BT-549 breast
  GI50: 17.9 µM
  TGI: 32.2 µM
CAKI-1 renal
  GI50: 23.4 µM
  TGI: 52.5 µM
M14 melanoma
  GI50: 15.3 µM
  TGI: 29 µM
NCI/ADR-RES ovarian
  GI50: 14.3 µM
  TGI: 31.8 µM
SF-268 CNS
  GI50: 17.5 µM
  TGI: 35 µM
SR leukemia
  GI50: 17.7 µM
  TGI: 38.3 µM
TK-10 renal
  GI50: 19.2 µM
  TGI: 34.9 µM
U251 CNS
  GI50: 17.7 µM
  TGI: 31.5 µM

## COc1ccc2c(c1)C(=O)c1c-2c(Nc2ccc(C(C)=O)cc2)nc2ccccc12
A498 renal
  GI50: 35.2 µM
  TGI: > 100 µM
ACHN renal
  GI50: 53.5 µM
  TGI: > 100 µM
BT-549 breast
  GI50: 17.7 µM
  TGI: 78.3 µM
CAKI-1 renal
  GI50: > 100 µM
  TGI: > 100 µM
M14 melanoma
  GI50: 64.6 µM
  TGI: > 100 µM
NCI/ADR-RES ovarian
  GI50: 41.7 µM
  TGI: > 100 µM
SF-268 CNS
  GI50: 58.7 µM
  TGI: > 100 µM
SR leukemia
  GI50: 55.7 µM
  TGI: > 100 µM
TK-10 renal
  GI50: 40.1 µM
  TGI: > 100 µM
U251 CNS
  GI50: 13.5 µM
  TGI: 40.6 µM

## COc1ccc(-c2nn(-c3cccc(NC(=O)c4ccc5c(c4)OCCO5)c3)cc2-c2ccncc2)cc1Cl
A498 renal
  GI50: 0.422 µM
  TGI: 3.45 µM
ACHN renal
  GI50: 3.82 µM
  TGI: > 100 µM
BT-549 breast
  GI50: 1.79 µM
  TGI: 7.4 µM
CAKI-1 renal
  GI50: 2.63 µM
  TGI: 15.8 µM
M14 melanoma
  GI50: 1.57 µM
  TGI: 4.28 µM
NCI/ADR-RES ovarian
  GI50: 1.01 µM
  TGI: 4.74 µM
SF-268 CNS
  GI50: 3.75 µM
  TGI: 34 µM
SR leukemia
  GI50: 1.1 µM
  TGI: 5.66 µM
TK-10 renal
  GI50: 5.25 µM
  TGI: 29.3 µM
U251 CNS
  GI50: 1.18 µM
  TGI: 12.7 µM

## O=P(NC12CC3CC(CC(C3)C1)C2)(N1CC1)N1CC1
A498 renal
  TGI: > 100 µM
ACHN renal
  TGI: > 100 µM
BT-549 breast
  TGI: > 100 µM
CAKI-1 renal
  TGI: > 100 µM
M14 melanoma
  TGI: > 100 µM
NCI/ADR-RES ovarian
  TGI: > 100 µM
SF-268 CNS
  TGI: > 100 µM
SR leukemia
  TGI: > 91.4 µM
TK-10 renal
  TGI: > 100 µM
U251 CNS
  TGI: > 100 µM

## CN(N=O)C(=O)N[C@@H](C=O)[C@@H](O)[C@H](O)[C@H](O)CO
A498 renal
  TGI: > 628 µM
ACHN renal
  TGI: > 750 µM
BT-549 breast
  TGI: > 750 µM
CAKI-1 renal
  GI50: > 750 µM
  TGI: 457 µM and > 750 µM
M14 melanoma
  TGI: > 750 µM
NCI/ADR-RES ovarian
  TGI: > 750 µM
SF-268 CNS
  GI50: > 750 µM
  TGI: > 750 µM
SR leukemia
  TGI: > 750 µM
TK-10 renal
  TGI: > 750 µM
U251 CNS
  GI50: > 750 µM
  TGI: 626 µM and > 750 µM
